Results: patent US10363239B2, “Method for inhibiting growth of cancer cells” (Pain Therapeutics, Inc., priority 2013, dated 2019)

Key:
Assay type in all cases: cell-based, human
[1] = tested on: glioblastoma cells (U-87 MG); assay: [3H]glucose uptake
Procedure: (§1) FIG. 1A through FIG. 1M illustrate the effects of various FLNA-binding compounds on glucose uptake in glioblastoma, melanoma, breast and pancreatic cancer cell lines, along with appropriate non-cancerous primary cell controls. Cells were grown in the absence or presence of 0.1-5 nM indicated compounds for 4 days. Following brief washes with PBS, cells were serum-deprived for 4 hours and then incubated in oxygenated Kreb's Ringer containing 0.1 μCi [^3H]glucose for 2 hours under constant oxygenation. The reaction was terminated by removal of the incubation medium, and cells were washed and scraped off to determine the amounts of [^3H]glucose in cells by scintillation spectrometry. […] N=5-6. […] . […] . To determine the effect of Compound C0105 on glucose utilization, the cancer and primary normal cells were plated extremely thinly (10%). Once cells attached, Compound C0105 was added at 0.1, 0.5, 1 or 5 nM in the medium twice daily (6 hours apart) for 4 days. The cells were serum-deprived (glucose deprived) for 2 hours. Cells were then rinsed with 1 ml PBS and glucose uptake was assessed by contacting the cells with [^3H]glucose (0.01 uCi/l ml) in Kreb's Ringer for 2 hours. Cells were then rinsed with 1 ml PBS 3 times, scraped off and their glucose content counted by liquid scintillation spectrophotometry.
(§2) Both glioblastoma and melanoma cells were plated extremely thinly. Once cells attached, Compound C0105 was added at 0.1, 0.5, 1 and 5 nM, whereas the other compounds were present at 1 and 5 nM in the medium twice daily (6 hours apart) for 4 days. The cells were serum-deprived (glucose deprived) for 2 hours. Cells were then rinsed with 1 ml PBS and glucose uptake was assessed by contacting the cells with [3H]glucose (0.01 uCi/l ml) of Kreb's Ringer for 2 hours. Cells were then rinsed with 1 ml PBS 3 times, scraped off and their glucose contents counted by liquid scintillation spectrophotometry.

[2] = tested on: melanoma cells (A2058); assay: [3H]glucose uptake
Procedure: as §1, §2

[3] = tested on: primary lung fibroblasts; assay: [3H]glucose uptake; settings: C0105 0.1-5 nM, other compounds 1 or 5 nM; 4 days
Procedure: as §1, §2

[4] = tested on: non-small cell lung cancer cell lines; assay: Glucose utilization; settings: data not shown
Procedure: To determine the effect of Compound C0105 on glucose utilization, the cancer and primary normal cells were plated extremely thinly (10%). Once cells attached, Compound C0105 was added at 0.1, 0.5, 1 or 5 nM in the medium twice daily (6 hours apart) for 4 days. The cells were serum-deprived (glucose deprived) for 2 hours. Cells were then rinsed with 1 ml PBS and glucose uptake was assessed by contacting the cells with [^3H]glucose (0.01 uCi/l ml) in Kreb's Ringer for 2 hours. Cells were then rinsed with 1 ml PBS 3 times, scraped off and their glucose content counted by liquid scintillation spectrophotometry.
. Primary lung fibroblast cells were used as control, non-cancerous cells to illustrate the difference in effects observed (FIG. 1C, FIGS. 1H-1I).

[5] = tested on: glioblastoma cells; assay: Glucose deprivation-induced apoptosis markers (cleaved PARP-1, caspase-3) by Western blotting; settings: 1 nM; Day 3 and 4
Procedure: . The resultant cell lysates were size-fractionated on SDS-PAGE and Western blotting with antibodies specific for Cleaved […] (Asp214) and caspase-3 (Asp175). The protein bands were quantified by densitometric scanning. […] . Data are mean±S.E.M. of ratios (FIG. 3B) and % inhibition (FIG. 3C). […] N=5. *p<0.01 compared to Day 0. #p<0.01 compared to vehicle (open bars).
(§3) . The cells were washed with PBS, incubated in 0.1% fetal bovine serum (FBS) for 16 hours and incubated in glucose-free 0.1% FBS-containing medium for up to 4 days in the presence of vehicle or 1 nM Compound C0105. The cells in the entire well were collected by centrifugation. […] The protein concentrations were measured by the Bradford method.
(§4) The cells were homogenized and the obtained homogenates were centrifuged to remove nucleus and mitochondria. […] The level of apoptotic cell death was determined using Western blotting in 50 μg solubilized cell lysates with antibodies against cleaved PARP-1 (Asp^214) and caspase-3 (Asp^175), both at 1:1000 dilution. […] Bands at the relevant molecular masses of Ki67 and PCNA were quantified by densitometric scan. Membranes were stripped, washed 5× in 0.1% PBST (2 minutes each wash) and the actin content analyzed by immunoblotting using monoclonal anti-actin to illustrate even loading.

[6] = tested on: small-cell lung carcinoma cells; assay: as above; settings: 1 nM; Day 3 and 4
Procedure: . Cells were washed, solubilized and the levels of apoptotic markers PARP-1 and caspase-3 (19- and 17-KDa) in the obtained cell lysates were determined by Western blotting. The density of protein bands was quantified by densitometric scanning. […] . […] N=5. *p<0.01 compared to Day 0. #p<0.01 compared to vehicle (open bars).
as §3, §4

[7] = C0105 0.1-5 nM, other compounds 1 and 5 nM, twice daily for 4 days

Structure (SMILES): CN1CCC2(CC1)NCC(=O)N2Cc1ccccc1 [Compound C0105]
- Reduction of glucose uptake ([1]; 0.1 nM, 4 days): 25%
- Inhibition of glucose uptake, maximal effect ([1]; 1 nM, 4 days): 50%
- EC50 ([1]; 4 days, read-out: EC50, inhibition of glucose uptake): ~0.1 nM
- Glucose utilization [1, 7]: decreased the elevated glucose utilization
- Inhibition of glucose uptake ([2]; 0.1-5 nM, not dose-dependent): about 25%
- Glucose utilization [2, 7]: decreased the elevated glucose utilization
- Glucose uptake / glucose content [3]: not changed
- Glucose utilization [4]: decreased the elevated glucose utilization
- Glucose deprivation-induced cell death by cleaved PARP-1 and caspase-3 [5]: attenuates glucose deprivation-induced cell death
- Glucose deprivation-induced cell death by cleaved PARP-1 and caspase-3 [6]: reduces glucose deprivation-induced cell death
